Blank lines part the entries; values can stand above or below the compound they belong to.
Experiments:
[1] = tested on: BMDCs overlaid with DOBW cells; assay: In vitro antigen presentation assay, MHC class II (BMDCs + DOBW hybridoma, IL-2 ELISA); conditions: BMDCs pre-treated 1 h: Chlorpromazine 30 µM, Dynasore 50 µM, Wortmannin 10 µM, Methyl β-CD 2 mM; OVA-loaded coacervates; DOBW overlay 16 h
Procedure: To test internalization mechanisms, we utilized in vitro antigen presentation assays (Fig. 4A). Here, bone marrow-derived dendritic cells (BMDCs) are treated with coacervates loaded with the model antigen ovalbumin (OVA). […] Secretion of IL-2 in response to peptide-MHC recognition is an indirect measure of coacervate uptake and can be quantified using ELISA (enzyme-linked immunosorbent assay) (Fig. 4A). […] We next used pharmacological inhibitors of endocytic mechanisms to explore mechanisms of cell entry (Fig. 4E). BMDCs were treated with inhibitors of clathrin-mediated endocytosis (chlorpromazine, CPZ),[58] dynamin-dependent endocytosis (dynasore, Dyn),[59] macropinocytosis (wortmannin, Wort),[60] cholesterol (methyl β-CD),[61] and IPA3 the regulatory domain of PAK1 (IPA-3)[62] for one h prior to antigen presentation assays.
Uptake of coacervates by BMDCs was measured using in vitro antigen presentation assays.
BMDCs were plated in 96-well round-bottom plates (1×10^5 cells/well) and maintained at 4°C or
treated with 10 mM deoxy glucose and 10 mM sodium azide in PBS (ATP depletion) for 1 h prior
to addition of OVA-loaded coacervates. Final OVA concentration was 1 g/mL for time-
dependent measurements and 10 g/mL for comparison between enantiomers. Cells maintained at
37°C and complete RPMI media served as controls. Soluble OVA and PBS treated cells were used as controls for antigen delivery. Following treatment (2 h, 4 h, 24 h, 48 h, or 72 h), BMDCs were
washed to remove extracellular coacervates and DOBW hybridoma cells (1:5, DC: DOBW) were
overlaid for 16 h. The cells were then centrifuged at 300 × g for 5 min, and the supernatant was
collected for IL-2 quantitation by ELISA according to the manufacturer protocol (Biotechne,
#DY402). The amount of IL-2 produced under each condition was measured.
Inhibition of coacervate uptake was measured by adding the inhibitors 1 h
prior to coacervate treatment for 24 h followed by hybridoma overlay and IL-2 measurements.

DCs = assay: DQ-OVA delivery to lysosomes (fluorescence microscopy); assay type: cell-based, mouse; conditions: DCs treated with DQ-OVA coacervates
Procedure: page 13: Flow cytometry The transfected A549 cells were washed with FACS wash buffer (FWB; 1× PBS with 10% […] Cells were washed again with FWB and then resuspended in 100 µl of PBS with eBioscience™ Fixable Viability Dye eFluor™ 506 antibody. The staining was quenched with FWB following a 20 min incubation. The cells were centrifuged, washed 2× times with FWB, and resuspended in 100 µl FWB with CD55 (DAF) Antibody (anti-human; miltenyibiotec Cat#130-126-382). After 20 min, staining was quenched, cells washed twice and resuspended in 200 µl FWB for acquisition. Single-stained cells stained with eFluor™ 506, CD55 (DAF) Antibody, were used as compensation controls. Samples were acquired using an Agilent NovoCyte 3000 flow cytometer. Data were analyzed with FlowJo version 10. […] was quantified as the percentage CD55+ cells, considering untreated cells as the negative control and Lipofectamine treated ones as the positive control. Antigen delivery to lysosomes and inhibitor effects DC 2.4 cells were cultured in RPMI-1640 (Catalog number: 11875093) medium supplemented with 10% FBS, 100 U/mL penicillin, 100 μg/mL streptomycin, and 1 mM sodium pyruvate. Cells were plated in 8-well chamber slides (5000 cells in 200 μL of media) and incubated for 24 h prior to addition of DQ-OVA loaded coacervates for 2 h, 6 h, or 24 h (final DQ-OVA concentration was 2.5 μg/mL). Cells treated with PBS or soluble OVA served as controls. Cells were then washed and fixed using 4% Paraformaldehyde (PFA) for 15 min at RT and permeabilized with 0.1% Triton X-100 for 5 min prior to nuclear staining with Hoechst stain (Catalog number: 62249, Thermo Fischer Scientific; 10 μg/mL). Cells were imaged (60×) on Lionheart FX automated microscope (BioTek Instruments, Inc.) with controlled exposure S13 page 14: parameters across two channels: eGFP and DAPI.

[2] = tested on: BMDCs overlaid with OVA1.3 hybridoma cells; assay: In vitro antigen presentation assay, MHC class I (BMDCs + OVA1.3 hybridoma, IL-2 ELISA); assay type: cell-based, mouse; conditions: inhibitor 30 min before coacervates, Bortezomib 10 nM, Brefeldin A 17.8 µM, Lactacystin 50 µM
Description: parameters across two channels: eGFP and DAPI. Images were captured for each time point (2, 6, […]
deconvoluted using Gen 5 software overlaid to visualize localization. To test the effect of […]
T cell proliferation and functional cytokine production […]
at 1×10^8 cells/mL in EasySep Buffer.

[3] = Optical microscopy of coacervate formation (LLPS); assay type: physicochemical
Description: NaCl) was used to study ionic strength effects. The absorbance was further converted to turbidity using methods previously described 1 and data was plotted as relative turbidity.
Optical microscopy and dynamic light scattering (DLS)
Droplets were visualized in 1×PBS using NCI Leica DMC4500 microscope in reflection mode with differential interference contrast. Images were captured with a DMC4500 camera under the control of Leica LAS X software (version 3.4.2). […]

[4] = Dynamic light scattering (DLS) droplet size; assay type: physicochemical; conditions: 1 mM peptide, 1× PBS, pH 7.4; mean of 3 measurements with 14 scans each; identical for each pair of enantiomers
Procedure: Optical microscopy and dynamic light scattering (DLS) […]
Coacervate size was measured using 1 mM
peptide solutions (1×PBS, pH 7.4) on a ZEN 3600 Zetasizer (Malvern Instruments, UK) using
DLS-Zen 0040 specialized cuvettes. The results were reported as the means of three
measurements, with 14 scans for each measurement. […]

[5] = Critical concentration (Ccrit) of coacervate formation; assay type: physicochemical; conditions: 1× PBS, pH 7.4; enantiomeric variants identical
Description: (§1) Peptide synthesis and purification
(§2) The L- and D-enantiomers of (GHGLY)4, (GHGVY)4 and (GHGPY)4 peptides were purchased from GenScript and used without further modification. (GHGAY)4, (GHGFY)4, (GHGIY)4 and (GHGNY)4 were synthesized using standard Fmoc-SPPS chemistry on Rink Amide with Oxyma (Ethyl cyano(hydroxyimino) acetate) and N, N′-diisopropylcarbodiimide (DIC) as coupling agents on a Liberty Blue microwave-assisted synthesizer. Peptides were cleaved using a cocktail of trifluoroacetic acid (TFA), tri-isopropyl silane (TIS), and H2O (95:2.5:2.5) and extracted and washed in cold diethyl ether. The resulting pellet was dissolved in acetonitrile/water mixture (50:50) and frozen prior to lyophilization. Peptides were purified (~90%) using High Performance Liquid Chromatography (HPLC) on a Dionex Ultimate 3000 HPLC equipped with a diode-array detector on an Agilent Poroshell RP-C18 column (4.6 mm×150 mm), operating at a flow rate of 1 mL/min. Peaks corresponding to 220 nm were collected for MALDI -TOF mass analysis (Shimadzu MALDI-8030) using α-cyno-4-hydroxycinnamic acid matrix (Bruker Daltonics, MA).
(§3) Peptide solutions (0.25–1.5 mM) were prepared in 1×PBS at pH 7.4. Aliquots (140 µL) were pipetted into a 96-well plate and absorbance at 600 nm was measured over 24 h using a Synergy HT plate reader (Biotek, USA) at RT or 37°C with or without agitation. The pH dependence of LLPS formation was assessed in 0.1 M potassium phosphate buffer (with 150 mM NaCl) at different pH values (5.8, 6.6, 7.4, 8.0) and 1 mM peptide concentration. Similarly, 0.1 M potassium phosphate buffer (pH 7.4) with varying salt concent rations (0, 150, 250, 500, 1000 mM […]
Figure S10. Determination of Ccrit for (a) (GHGLY)4, (b) (GHGVY)4, (c) (GHGPY)4 and (d-f) their corresponding enantiomers (1 mM, 1× PBS, pH 7.4).
Table S1. Measured Ccrit values for (GHGXY)4 peptides used in this study.
(1 picture or pasted object on this page, not shown here)

Turbidity assay of LLPS = assay type: physicochemical; conditions: 1× PBS pH 7.4, absorbance at 600 nm over 24 h, plate reader
Description: as §1
as §2, with “Peaks corresponding to 220 nm were collected for MALDI -TOF mass analysis (Shimadzu MALDI-8030) using α-cyno-4-hydroxycinnamic acid matrix (Bruker Daltonics, MA).” left out
as §3, with “concentration.” for “concentration. Similarly, 0.1 M potassium phosphate buffer (pH 7.4) with varying salt concent rations (0, 150, 250, 500, 1000 mM”
NaCl) was used to study ionic strength effects. The absorbance was further converted to turbidity using methods previously described 1 and data was plotted as relative turbidity. […]
Droplets were visualized in 1×PBS using NCI Leica DMC4500 microscope in reflection mode with differential interference contrast. […] Coacervate size was measured using 1 mM peptide solutions (1×PBS, pH 7.4) on a ZEN 3600 Zetasizer (Malvern Instruments, UK) using DLS-Zen 0040 specialized cuvettes. […]
Viscosity of the peptide solutions (1 mM or 2 mM) was tested using an ARES 2000ex rotational rheometer (TA Instruments, New Castle, DE). […] Viscosity was measured as a function

[6] = Encapsulation efficiency measurement; assay type: physicochemical; conditions: 1 mM peptide, 1 µM eGFP in PBS; centrifuged 15,000 × g 10 min; fluorescence of supernatant (λex 395 nm, λem 510 nm)
Procedure: Encapsulation efficiency measurements […]
powders to a final peptide concentration of 1 mM. Cargo concentrations in the stock solutions […]
nm and λem: 519 nm). For small molecule dyes, similar methods were used. The encapsulation efficiency was determined as reported previously 12.
Cellular uptake and antigen presentation assays […]
to addition of OVA-loaded coacervates. Final OVA concentration was 1 µg/mL for time- […]
37°C and complete RPMI media served as controls. Soluble OVA and PBS treated cells were used as controls for antigen delivery.

Compound: CN(C)CCCN1c2ccccc2Sc2ccc(Cl)cc21 [CPZ, chlorpromazine]
- effect of endocytosis inhibitor on uptake of coacervates (IL-2) [1]: did not significantly impact droplet uptake

Compound: O=C(N/N=C/c1ccc(O)c(O)c1)c1cc2ccccc2cc1O [Dyn, dynasore]
- effect of endocytosis inhibitor on uptake of coacervates (IL-2) [1]: did not significantly impact droplet uptake

Compound: Cl.N [NH4Cl, reference compound]
- DQ-OVA fluorescence intensity in DCs in the presence of inhibitor (DCs): reduced

Compound: CO/C1=C\C(C)=C\[C@@H](C)[C@@H](O)[C@@H](C)C/C(C)=C/C=C/[C@H](OC)[C@@H]([C@@H](C)[C@@H](O)[C@H](C)[C@@]2(O)C[C@@H](O)[C@H](C)[C@@H](C(C)C)O2)OC1=O [bafilomycin, reference compound]
- DQ-OVA fluorescence intensity in DCs in the presence of inhibitor (DCs): reduced

Compound: CC(C)C[C@H](NC(=O)[C@H](Cc1ccccc1)NC(=O)c1cnccn1)B(O)O [bortezomib]
- MHC class I presentation (IL-2 secretion) with MHC-I inhibitor [2]: significantly diminished

Compound: C[C@H]1CCC/C=C/[C@@H]2C[C@H](O)C[C@H]2[C@H](O)/C=C/C(=O)O1 [brefeldin A]
- MHC class I presentation (IL-2 secretion) with MHC-I inhibitor [2]: significantly diminished

Compound: CC(=O)N[C@@H](CSC(=O)[C@]1([C@@H](O)C(C)C)NC(=O)[C@H](C)[C@@H]1O)C(=O)O [lactacystin]
- MHC class I presentation (IL-2 secretion) with MHC-I inhibitor [2]: significantly diminished

Compound: COC[C@H]1OC(=O)c2coc3c2[C@@]1(C)C1=C(C3=O)[C@@H]2CCC(=O)[C@@]2(C)C[C@H]1OC(C)=O [wortmannin]
- effect of endocytosis inhibitor on uptake of coacervates (IL-2) [1]: most significant effect on uptake of coacervates

- coacervates at concentrations exceeding 250 mM NaCl ([3]; optical micrographs, 0.1 M potassium phosphate buffer pH 7.4, > 250 mM NaCl): no coacervates were detected
- coacervate formation ([3]; optical microscopy, 1× PBS, across multiple synthesis batches): Consistent coacervate formation
- droplet size (DLS) [4]: ~0.2 μm
- critical concentration (Ccrit) of coacervate formation [5]: 1 mM
- eGFP loading efficiency [6]: ~30%
Compound: (GHGPY)4 [GP 20]
- turbidity over time (A600) (Turbidity assay of LLPS): no turbidity changes were detected with time

Compound: methyl β-CD
- effect of endocytosis inhibitor on uptake of coacervates (IL-2) [1]: did not significantly impact droplet uptake

From PMC11955804, “Histidine-rich enantiomeric peptide coacervates enhance antigen sequestration and presentation to T cells” (Chemical Science, 2025)
